Results: PubChem BioAssay (NCI)
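Briefly, cells in 96-well plates were exposed to five compound concentrations for 48 h, and endpoints were estimated by linear interpolation. Abbreviation: GI50, concentration required for 50% inhibition of growth. TGI: total growth inhibition.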

Columns and labels:
Experiment in all cases: DTP human tumour cell line panel, 48 h
[1] = tested on: OVCAR-5 ovarian
[2] = tested on: MALME-3M melanoma
[3] = tested on: ACHN renal
[4] = tested on: SR leukemia
[5] = tested on: NCI/ADR-RES ovarian
[6] = tested on: MCF7 breast
[7] = tested on: SF-268 CNS
[8] = tested on: M14 melanoma
[9] = tested on: SW-620 colon
[10] = tested on: SK-MEL-2 melanoma
[11] = tested on: UACC-62 melanoma
[12] = tested on: CAKI-1 renal
[13] = tested on: MDA-MB-435
[14] = tested on: T-47D breast
[15] = tested on: OVCAR-4 ovarian
[16] = tested on: U251 CNS
[17] = tested on: NCI-H23 lung
[18] = tested on: MOLT-4 leukemia
[19] = tested on: SK-OV-3 ovarian
[20] = tested on: SNB-75 CNS
[21] = tested on: SK-MEL-28 melanoma
[22] = tested on: K-562 leukemia
[23] = tested on: HOP-62 NSCLC
[24] = tested on: A549 NSCLC
[25] = tested on: SK-MEL-5 melanoma
[26] = tested on: RPMI-8226 leukemia
[27] = tested on: IGROV1 ovarian
[28] = tested on: RXF 393 renal
[29] = tested on: COLO 205 colon
[30] = tested on: CCRF-CEM leukemia
[31] = tested on: NCI-H460 lung
[32] = tested on: 786-0 renal
[33] = tested on: NCI-H226 lung
[34] = tested on: A498 renal
[35] = tested on: SN12C renal
[36] = tested on: UACC-257 melanoma
[37] = tested on: SNB-19 CNS
[38] = tested on: MDA-MB-231 breast
[39] = tested on: HL-60(TB) leukemia
[40] = tested on: PC-3 prostate
[41] = tested on: LOX IMVI melanoma
[42] = tested on: UO-31 renal
[43] = tested on: HT29 colon
[44] = tested on: TK-10 renal
[45] = tested on: DU-145 prostate
[46] = tested on: BT-549 breast
[47] = tested on: SF-539 CNS
[48] = tested on: NCI-H522 lung
[49] = tested on: HS 578T breast
[50] = tested on: OVCAR-3 ovarian
[51] = tested on: HCT-15 colon
[52] = tested on: HCC-2998 colon
[53] = tested on: EKVX NSCLC
[54] = tested on: HCT-116 colon
[55] = tested on: OVCAR-8 ovarian
[56] = tested on: KM12 colon
[57] = tested on: SF-295 CNS
[58] = tested on: HOP-92 NSCLC

Structure (SMILES): COc1cc2ccc3ccncc3c2cc1OC
- TGI [1]: > 10 µM
- TGI [2]: > 10 µM
- TGI [3]: > 10 µM
- TGI [4]: > 10 µM
- TGI [5]: > 10 µM
- TGI [6]: > 10 µM
- TGI [7]: > 10 µM
- TGI [8]: > 10 µM
- TGI [9]: > 10 µM
- TGI [10]: > 10 µM
- TGI [11]: > 10 µM
- TGI [12]: > 10 µM
- TGI [13]: > 10 µM
- TGI [14]: > 10 µM
- TGI [15]: > 10 µM
- TGI [16]: > 10 µM
- TGI [17]: > 10 µM
- TGI [18]: > 10 µM
- TGI [19]: > 10 µM
- TGI [20]: > 10 µM
- TGI [21]: > 10 µM
- TGI [22]: > 10 µM
- TGI [23]: > 10 µM
- TGI [24]: > 10 µM
- TGI [25]: > 10 µM
- TGI [26]: > 10 µM
- TGI [27]: > 10 µM
- TGI [28]: > 10 µM
- TGI [29]: > 10 µM
- TGI [30]: > 10 µM
- TGI [31]: > 10 µM
- TGI [32]: > 10 µM

Structure (SMILES): COc1ccc(-c2n/c(=C\c3c(O)[nH]c4ccccc34)cc3c2=Nc2ccccc2-3)cc1
- GI50 [1]: 5.63 µM
- TGI [1]: 20.4 µM
- GI50 [3]: 6.81 µM
- TGI [3]: 21.3 µM
- GI50 [4]: 0.518 µM
- TGI [4]: 3.15 µM
- GI50 [5]: 0.667 µM
- TGI [5]: 3.04 µM
- GI50 [33]: 15.1 µM
- TGI [33]: 36.2 µM
- GI50 [34]: 2.42 µM
- TGI [34]: 13.2 µM
- GI50 [35]: 2.03 µM
- TGI [35]: 5.3 µM
- GI50 [36]: 2.19 µM
- TGI [36]: 6.97 µM
- GI50 [37]: 1.63 µM
- TGI [37]: 3.79 µM
- GI50 [6]: 1.28 µM
- TGI [6]: 2.75 µM
- GI50 [7]: 1.64 µM
- TGI [7]: 3.58 µM
- GI50 [8]: 1.15 µM
- TGI [8]: 2.43 µM
- GI50 [38]: 1.13 µM
- TGI [38]: 2.52 µM
- GI50 [9]: 1.11 µM
- TGI [9]: 2.31 µM
- GI50 [39]: 1.9 µM
- TGI [39]: 4.08 µM
- GI50 [10]: 0.795 µM
- TGI [10]: 2.35 µM
- GI50 [11]: 1.31 µM
- TGI [11]: 2.58 µM
- GI50 [40]: 1.3 µM
- TGI [40]: 9.31 µM
- GI50 [41]: 1.55 µM
- TGI [41]: 2.88 µM
- GI50 [12]: 14.5 µM
- TGI [12]: 36.7 µM
- GI50 [14]: 2.22 µM
- TGI [14]: 9.43 µM
- GI50 [15]: 1.47 µM
- TGI [15]: 2.98 µM
- GI50 [42]: 0.693 µM
- TGI [42]: 24.2 µM
- GI50 [43]: 1.1 µM
- TGI [43]: 2.29 µM
- GI50 [16]: 1.45 µM
- TGI [16]: 2.76 µM
- GI50 [17]: 1.55 µM
- TGI [17]: 3.09 µM
- GI50 [44]: 1.65 µM
- TGI [44]: 3.01 µM
- GI50 [45]: 1.61 µM
- TGI [45]: 3.31 µM
- GI50 [18]: 2.03 µM
- TGI [18]: 4.27 µM
- GI50 [19]: 9.19 µM
- TGI [19]: 35.6 µM
- GI50 [20]: 2.07 µM
- TGI [20]: 21.1 µM
- GI50 [21]: 1.07 µM
- TGI [21]: 2.32 µM
- GI50 [46]: 1.45 µM
- TGI [46]: 2.96 µM
- GI50 [47]: 1.86 µM
- TGI [47]: 3.31 µM
- GI50 [48]: 1.06 µM
- TGI [48]: 2.3 µM
- GI50 [22]: 1.45 µM
- TGI [22]: 3.63 µM
- GI50 [49]: 1.85 µM
- TGI [49]: 5.75 µM
- GI50 [23]: 1.63 µM
- TGI [23]: 3.23 µM
- GI50 [50]: 1.01 µM
- TGI [50]: 2.28 µM
- GI50 [24]: 1.79 µM
- TGI [24]: 4.31 µM
- GI50 [25]: 1.36 µM
- TGI [25]: 2.64 µM
- GI50 [51]: 1.64 µM
- TGI [51]: 4.13 µM
- GI50 [52]: 1.52 µM
- TGI [52]: 3.07 µM
- GI50 [26]: 2.35 µM
- TGI [26]: 6.87 µM
- GI50 [27]: 15.3 µM
- TGI [27]: 47.7 µM
- GI50 [53]: 3.44 µM
- TGI [53]: 52 µM
- GI50 [54]: 1.55 µM
- TGI [54]: 2.88 µM
- GI50 [55]: 1.42 µM
- TGI [55]: 3.11 µM
- GI50 [28]: 1.26 µM
- TGI [28]: 2.67 µM
- GI50 [30]: 2.24 µM
- TGI [30]: 7.1 µM
- GI50 [31]: 1.68 µM
- TGI [31]: 3.28 µM
- GI50 [56]: 0.695 µM
- TGI [56]: 2.18 µM

Structure (SMILES): CC1(C)CC(=O)C2=C(C1)OC1(CC2c2ccc(Cl)cc2)CC(c2ccc(Cl)cc2)C2=C(CC(C)(C)CC2=O)O1 (stereo not drawn)
- TGI [1]: > 79.1 µM
- TGI [2]: 30.1 µM
- TGI [3]: 38.9 µM
- TGI [4]: 87.2 µM
- TGI [5]: > 73.3 µM
- TGI [33]: 42.1 µM
- TGI [34]: 31 µM
- TGI [35]: > 84.2 µM
- TGI [36]: > 61.7 µM
- TGI [37]: 54.6 µM
- TGI [6]: > 100 µM
- TGI [7]: 42 µM
- TGI [8]: > 52.1 µM
- TGI [38]: 50.3 µM
- TGI [9]: 61.2 µM
- TGI [39]: 24.1 µM
- TGI [10]: 43.8 µM
- TGI [11]: > 53.5 µM
- TGI [40]: > 65.9 µM
- TGI [41]: 64.2 µM
- TGI [57]: > 53.2 µM
- TGI [12]: 52.3 µM
- TGI [13]: 33.7 µM
- TGI [15]: 30.6 µM
- TGI [42]: 30.7 µM
- TGI [43]: > 100 µM
- TGI [16]: > 57.6 µM
- TGI [58]: 25.7 µM
- TGI [17]: 34.9 µM
- TGI [44]: > 83.8 µM
- TGI [45]: 46.4 µM
- TGI [18]: 13.6 µM
- TGI [19]: 29.4 µM
- TGI [20]: 37.1 µM
- TGI [21]: 34 µM
- TGI [46]: 50.6 µM
- TGI [47]: > 51.3 µM
- TGI [48]: 27.6 µM
- TGI [22]: > 51.3 µM
- TGI [49]: 36.1 µM
- TGI [23]: 34.2 µM
- TGI [50]: 23.5 µM
- TGI [24]: 30.9 µM
- TGI [25]: 31.4 µM
- TGI [51]: > 100 µM
- TGI [52]: 38.5 µM
- TGI [26]: 28.5 µM
- TGI [27]: 33.4 µM
- TGI [53]: 34.4 µM
- TGI [54]: > 48.9 µM
- TGI [55]: 87.5 µM
- TGI [28]: 94.3 µM
- TGI [29]: 36.6 µM
- TGI [30]: > 76.7 µM
- TGI [31]: > 65.1 µM
- TGI [56]: 40.6 µM
- TGI [32]: 35.9 µM
